Source: patent publication US20210307272A1, “USE OF PLANT GROWTH REGULATORS TO ENHANCE ALGAE GROWTH FOR THE PRODUCTION OF ADDED VALUE PRODUCTS” (priority 2009, published 2021)

Experiments:
Type in all cases: cell-based
Chlorella protothecoides [1] = test: Effect of hormone concentrations on growth rate of Chlorella protothecoides, heterotrophic; conditions: 48 hours, control 1.54
Scenedesmus obliquus [2] = test: Effect of hormone concentrations on growth rate of Scenedesmus obliquus, heterotrophic; conditions: 48 hours, control 0.35
Chlorella protothecoides [3] = test: Effect of hormone concentrations on growth rate of Chlorella protothecoides, photoheterotrophic; conditions: 48 hours, control 1.05
Method: The influence of light exposure during Scenedesmus obliquus and Chlorella protothecoides growth was assessed. The growth rates of both algae were higher in photoheterotrophic growth conditions. The Scenedesmus obliquus growth rate was about 86.7% higher under photoheterotrophic growth. Meanwhile, the Chlorella protothecoides growth rate increased 39.07% when the growth was conducted under photoheterotrophic growth.

Scenedesmus obliquus [4] = test: Effect of hormone concentrations on growth rate of Scenedesmus obliquus, photoheterotrophic; conditions: 48 hours, control 0.41
[5] = tested on: Auxenochlorella protothecoides; test: Auxenochlorella protothecoides culture with growth regulator, dry weight and oil after seven days; conditions: 2 mg/L
Method: Auxenochlorella protothecoides was grown in Bristol's medium (see above) amended with 0.1% yeast extract (see above) and 0.5% glucose (control cells). Two other groups were cultured in the same medium with either indole acetic acid (2 mg/L, Cat. No. 12886, Sigma-Aldrich Canada Ltd.) or giberellic acid (2 mg/L, Cat. No. G7645, Sigma-Aldrich Canada Ltd.) added. Dry weights were determined and compared between the culture groups after seven days.

## O=C(O)Cc1cccc2ccccc12 [1-Naphthaleneacetic acid]
Chlorella protothecoides [1]; 0.01 ng
  growth rate: 1.66
Chlorella protothecoides [1]; 0.1 ng
  growth rate: 1.54
Chlorella protothecoides [1]; 1 ng
  growth rate: 1.62
Chlorella protothecoides [1]; 10 ng
  growth rate: 1.57
Chlorella protothecoides [1]; 100 ng
  growth rate: 1.62
Scenedesmus obliquus [2]; 0.01 ng
  growth rate: 0.26
Scenedesmus obliquus [2]; 0.1 ng
  growth rate: 0.28
Scenedesmus obliquus [2]; 1 ng
  growth rate: 0.33
Scenedesmus obliquus [2]; 10 ng
  growth rate: 0.28
Scenedesmus obliquus [2]; 100 ng
  growth rate: 0.39
Chlorella protothecoides [3]; 0.01 ng
  growth rate: 1.00
Chlorella protothecoides [3]; 0.1 ng
  growth rate: 1.02
Chlorella protothecoides [3]; 1 ng
  growth rate: 1.05
Chlorella protothecoides [3]; 10 ng
  growth rate: 1.07
Chlorella protothecoides [3]; 100 ng
  growth rate: 1.16
Scenedesmus obliquus [4]; 0.01 ng
  growth rate: 0.84
Scenedesmus obliquus [4]; 0.1 ng
  growth rate: 0.85
Scenedesmus obliquus [4]; 1 ng
  growth rate: 0.81
Scenedesmus obliquus [4]; 10 ng
  growth rate: 0.80
Scenedesmus obliquus [4]; 100 ng
  growth rate: 0.73

## O=C(O)COc1ccc(Cl)cc1Cl [2,4-Dichlorophenoxyacetic, 2,4-dichlorophenoxyacetic acid]
Chlorella protothecoides [1]; 0.01 ng
  growth rate: 1.40
Chlorella protothecoides [1]; 0.1 ng
  growth rate: 1.53
Chlorella protothecoides [1]; 1 ng
  growth rate: 1.43
Chlorella protothecoides [1]; 10 ng
  growth rate: 1.31
Chlorella protothecoides [1]; 100 ng
  growth rate: 1.50
Scenedesmus obliquus [2]; 0.01 ng
  growth rate: 0.28
Scenedesmus obliquus [2]; 0.1 ng
  growth rate: 0.23
Scenedesmus obliquus [2]; 1 ng
  growth rate: 0.31
Scenedesmus obliquus [2]; 10 ng
  growth rate: 0.24
Scenedesmus obliquus [2]; 100 ng
  growth rate: 0.23
Chlorella protothecoides [3]; 0.01 ng
  growth rate: 1.09
Chlorella protothecoides [3]; 0.1 ng
  growth rate: 1.08
Chlorella protothecoides [3]; 1 ng
  growth rate: 1.01
Chlorella protothecoides [3]; 10 ng
  growth rate: 1.08
Chlorella protothecoides [3]; 100 ng
  growth rate: 1.03
Scenedesmus obliquus [4]; 0.01 ng
  growth rate: 0.42
Scenedesmus obliquus [4]; 0.1 ng
  growth rate: 0.44
Scenedesmus obliquus [4]; 1 ng
  growth rate: 0.47
Scenedesmus obliquus [4]; 10 ng
  growth rate: 0.44
Scenedesmus obliquus [4]; 100 ng
  growth rate: 0.33

## c1ccc(CNc2ncnc3nc[nH]c23)cc1 [6-Benzylaminopurine, 6-benzylaminopurine]
Chlorella protothecoides [1]; 0.01 ng
  growth rate: 1.48
Chlorella protothecoides [1]; 0.1 ng
  growth rate: 1.54
Chlorella protothecoides [1]; 1 ng
  growth rate: 1.50
Chlorella protothecoides [1]; 10 ng
  growth rate: 1.52
Chlorella protothecoides [1]; 100 ng
  growth rate: 1.46
Scenedesmus obliquus [2]; 0.01 ng
  growth rate: 0.28
Scenedesmus obliquus [2]; 0.1 ng
  growth rate: 0.32
Scenedesmus obliquus [2]; 1 ng
  growth rate: 0.39
Scenedesmus obliquus [2]; 10 ng
  growth rate: 0.36
Scenedesmus obliquus [2]; 100 ng
  growth rate: 0.33
Chlorella protothecoides [3]; 0.01 ng
  growth rate: 1.00
Chlorella protothecoides [3]; 0.1 ng
  growth rate: 1.12
Chlorella protothecoides [3]; 1 ng
  growth rate: 1.07
Chlorella protothecoides [3]; 10 ng
  growth rate: 1.04
Chlorella protothecoides [3]; 100 ng
  growth rate: 1.08
Scenedesmus obliquus [4]; 0.01 ng
  growth rate: 0.46
Scenedesmus obliquus [4]; 0.1 ng
  growth rate: 0.37
Scenedesmus obliquus [4]; 1 ng
  growth rate: 0.47
Scenedesmus obliquus [4]; 10 ng
  growth rate: 0.47
Scenedesmus obliquus [4]; 100 ng
  growth rate: 0.52

## C=C1C[C@]23C[C@@]1(O)CC[C@H]2[C@@]12C=C[C@H](O)[C@@](C)(C(=O)O1)[C@H]2[C@@H]3C(=O)O [Gibberellic acid]
[5]
  increase of dry cell mass relative to the control: 20%
Chlorella protothecoides [1]; 0.01 ng
  growth rate: 1.52
Chlorella protothecoides [1]; 0.1 ng
  growth rate: 1.52
Chlorella protothecoides [1]; 1 ng
  growth rate: 1.46
Chlorella protothecoides [1]; 10 ng
  growth rate: 1.52
Chlorella protothecoides [1]; 100 ng
  growth rate: 1.46
Scenedesmus obliquus [2]; 0.01 ng
  growth rate: 0.44
Scenedesmus obliquus [2]; 0.1 ng
  growth rate: 0.50
Scenedesmus obliquus [2]; 1 ng
  growth rate: 0.43
Scenedesmus obliquus [2]; 10 ng
  growth rate: 0.36
Scenedesmus obliquus [2]; 100 ng
  growth rate: 0.42
Chlorella protothecoides [3]; 0.01 ng
  growth rate: 1.06
Chlorella protothecoides [3]; 0.1 ng
  growth rate: 1.02
Chlorella protothecoides [3]; 1 ng
  growth rate: 1.00
Chlorella protothecoides [3]; 10 ng
  growth rate: 1.09
Chlorella protothecoides [3]; 100 ng
  growth rate: 1.10
Scenedesmus obliquus [4]; 0.01 ng
  growth rate: 0.59
Scenedesmus obliquus [4]; 0.1 ng
  growth rate: 0.47
Scenedesmus obliquus [4]; 1 ng
  growth rate: 0.56
Scenedesmus obliquus [4]; 10 ng
  growth rate: 0.56
Scenedesmus obliquus [4]; 100 ng
  growth rate: 0.51

## O=C(O)Cc1c[nH]c2ccccc12 [Indole-3-acetic acid, indole-3-acetic acid]
[5]
  increase of dry cell mass relative to the control: 50%
  increase of oil production: 15%
Chlorella protothecoides [1]; 0.01 ng
  growth rate: 1.62
Chlorella protothecoides [1]; 0.1 ng
  growth rate: 1.61
Chlorella protothecoides [1]; 1 ng
  growth rate: 1.49
Chlorella protothecoides [1]; 10 ng
  growth rate: 1.60
Chlorella protothecoides [1]; 100 ng
  growth rate: 1.60
Scenedesmus obliquus [2]; 0.01 ng
  growth rate: 0.23
Scenedesmus obliquus [2]; 0.1 ng
  growth rate: 0.36
Scenedesmus obliquus [2]; 1 ng
  growth rate: 0.42
Scenedesmus obliquus [2]; 10 ng
  growth rate: 0.47
Scenedesmus obliquus [2]; 100 ng
  growth rate: 0.41
Chlorella protothecoides [3]; 0.01 ng
  growth rate: 1.06
Chlorella protothecoides [3]; 0.1 ng
  growth rate: 1.05
Chlorella protothecoides [3]; 1 ng
  growth rate: 0.97
Chlorella protothecoides [3]; 10 ng
  growth rate: 1.13
Chlorella protothecoides [3]; 100 ng
  growth rate: 1.02
Scenedesmus obliquus [4]; 0.01 ng
  growth rate: 0.42
Scenedesmus obliquus [4]; 0.1 ng
  growth rate: 0.47
Scenedesmus obliquus [4]; 1 ng
  growth rate: 0.49
Scenedesmus obliquus [4]; 10 ng
  growth rate: 0.49
Scenedesmus obliquus [4]; 100 ng
  growth rate: 0.62

## c1coc(CNc2ncnc3[nH]cnc23)c1 [Kinetin, kinetin]
Chlorella protothecoides [1]; 0.01 ng
  growth rate: 1.60
Chlorella protothecoides [1]; 0.1 ng
  growth rate: 1.50
Chlorella protothecoides [1]; 1 ng
  growth rate: 1.44
Chlorella protothecoides [1]; 10 ng
  growth rate: 1.60
Chlorella protothecoides [1]; 100 ng
  growth rate: 1.58
Scenedesmus obliquus [2]; 0.01 ng
  growth rate: 0.28
Scenedesmus obliquus [2]; 0.1 ng
  growth rate: 0.26
Scenedesmus obliquus [2]; 1 ng
  growth rate: 0.36
Scenedesmus obliquus [2]; 10 ng
  growth rate: 0.31
Scenedesmus obliquus [2]; 100 ng
  growth rate: 0.28
Chlorella protothecoides [3]; 0.01 ng
  growth rate: 1.08
Chlorella protothecoides [3]; 0.1 ng
  growth rate: 1.10
Chlorella protothecoides [3]; 1 ng
  growth rate: 1.02
Chlorella protothecoides [3]; 10 ng
  growth rate: 1.18
Chlorella protothecoides [3]; 100 ng
  growth rate: 1.19
Scenedesmus obliquus [4]; 0.01 ng
  growth rate: 0.57
Scenedesmus obliquus [4]; 0.1 ng
  growth rate: 0.73
Scenedesmus obliquus [4]; 1 ng
  growth rate: 0.92
Scenedesmus obliquus [4]; 10 ng
  growth rate: 0.37
Scenedesmus obliquus [4]; 100 ng
  growth rate: 0.36
